{"source": "patent US20080058642A1", "about": "“METHOD FOR DETECTING CORONARY ENDOTHELIAL DYSFUNCTION AND EARLY ATHEROSCLEROSIS” (BOARD OF REGENTS OF THE UNIVERSITY OF TEXAS SYSTEM, priority 2006, published 2008)", "origin": "cited, not measured here", "target": "T1, ETA-receptor (Homo sapiens, UniProt P25101)", "T1 construct": "host or cells: in vivo, heart failure trial", "T1 sequence (P25101 21-427)": "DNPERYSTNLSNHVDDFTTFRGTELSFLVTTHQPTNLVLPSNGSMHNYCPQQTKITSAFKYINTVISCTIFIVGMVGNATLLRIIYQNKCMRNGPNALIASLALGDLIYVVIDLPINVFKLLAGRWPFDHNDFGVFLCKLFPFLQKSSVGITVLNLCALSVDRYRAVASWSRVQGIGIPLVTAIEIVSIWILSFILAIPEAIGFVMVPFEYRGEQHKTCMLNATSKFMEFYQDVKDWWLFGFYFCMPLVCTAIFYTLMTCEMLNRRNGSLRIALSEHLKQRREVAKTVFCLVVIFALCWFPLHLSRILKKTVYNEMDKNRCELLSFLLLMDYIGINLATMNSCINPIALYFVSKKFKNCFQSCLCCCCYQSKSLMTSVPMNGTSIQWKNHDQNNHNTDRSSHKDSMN", "conditions": "recent randomized trial; cited from earlier work", "data": [{"smiles": "COc1cc(OC)nc(O[C@H](C(=O)O)C(OC)(c2ccccc2)c2ccccc2)n1", "note": "[Darusentan™]", "values": [{"measurement": "benefit in heart failure", "result": "no benefit"}]}]}
